System: erythrocytes in a whole blood sample
Test: hemagglutination evaluation test: whole blood sample added to hemagglutination reagent, rate of agglutination of erythrocytes visually evaluated
Format: cell-based
Design: key to Rate of agglutination: +++: Erythrocytes were instantaneously agglutinated into a sufficient size and the agglutinated erythrocytes were precipitated.; ++: Erythrocytes started to agglutinate after leaving to stand for a few seconds, and agglutinated erythrocytes were gradually precipitated.; +: Erythrocytes were agglutinated, but the agglutinates were very small and the agglutination was incomplete.; ±: Only very few erythrocytes were agglutinated.; −: Erythrocytes were hemolyzed without being agglutinated
Conditions: citric acid 100 mM in physiologic saline, pH3.0
Procedure: To 71 mL of distilled water, 10 mL of 10 w/v % sodium taurodeoxycholate hydrate (TDOC), 10 mL of 1 M citric acid, and 9 mL of 10 w/v % sodium chloride were added to prepare a solution containing 100 mM citric acid, 1% TDOC, and 0.9% sodium chloride as final concentrations (hemagglutination reagent). A solution was also prepared in the similar manner except that TDOC and/or sodium chloride were not added (hemagglutination reagent), and effects of the presence and absence of the cholic acid-based surfactant and the salt and the pH range on agglutination of erythrocytes were compared.
(§1) After adding 60 μL of a whole blood sample to 400 μL of the hemagglutination reagent, the rate of agglutination of erythrocytes was visually evaluated. The rate of agglutination was evaluated as +++, ++, +, or ± in order of rapidity based on the criteria described below. Hemolysis without agglutination was evaluated as −.
The pH of the hemagglutination reagent was measured using a desktop pH meter (HORIBA) (similarly in the following Examples and Comparative Examples).
Various cholic acid-based surfactants (1% by weight) and citric acid (100 mM) were added to a physiologic saline to prepare hemagglutination reagents (pH3.0) and their abilities to agglutinate erythrocytes were compared.
as §1, with “was” for “was visually”, “−. The following criteria were the same as those in Examples 1 to 4 and Comparative Examples 1-1 to 4-2.” for “−.”
Sodium taurodeoxycholate hydrate (TDOC) and citric acid (100 mM) were added to a physiologic saline to prepare hemagglutination reagents (pH3.0), and their abilities to agglutinate erythrocytes were compared in the concentration range of TDOC as shown in the table below.
as §1, with “was” for “was visually”, “criteria” for “criteria described”, “−. The following criteria were the same as those in Examples 1 to 7 and Comparative Examples 1-1 to 4-2.” for “−.”

Structure (SMILES): C[C@H](CCC(=O)NCCS(=O)(=O)[O-])[C@H]1CC[C@H]2[C@@H]3CC[C@@H]4C[C@H](O)CC[C@]4(C)[C@H]3C[C@H](O)[C@]12C.O.[Na+] [TDOC, sodium taurodeoxycholate hydrate]
- Rate of agglutination (Concentration of TDOC 0.1 wt %): +++
- Rate of agglutination (Concentration of TDOC 0.5 wt %): +++
- Rate of agglutination (Concentration of TDOC 1.0 wt %): +++
- Rate of agglutination (Concentration of TDOC 6.0 wt %): +++
- effect on hemagglutination (compared among cholic acid-based surfactants) (surfactant 1% by weight): most significant

From US11320350B2, “Method for agglutinating erythrocytes, method for separating erythrocytes, and hemagglutination reagent” (DENKA SEIKEN CO., LTD., priority 2016, dated 2022)
